Read-outs that look alike come from different tables or passages of the source.
Key:
[1] = tested on: P. falciparum female gametocytes; assay: P. falciparum Dual Gamete Formation Assay (PfDGFA), female readout (Pfs25-positive female gametes); type: cell-based, Plasmodium falciparum NF54; settings: for HitlevelF: number of replicates with >50% inhibition in the female readout; for Selectivity ratio F: HepG2 Tox50 versus female IC50; for IC50: PfDGFA, 24 h incubation with gametocytes before induction, female gamete readout, read-out: Female IC50
Outline: (§1)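 NF54 mature gametocytes (d14), cpd 24 h 37°C hypoxic gas; trigger: xanthurenic acid ookinete medium + Cy3 anti-Pfs25, 4°C 4 min → 28°C 4 min. Male: exflagellation centres, brightfield x6. Female: Pfs25+ gametes, fluorescence, +24 h 28°C dark.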

[2] = tested on: P. falciparum male gametocytes; assay: P. falciparum Dual Gamete Formation Assay (PfDGFA), male readout (exflagellation); type: cell-based, Plasmodium falciparum NF54; settings: for HitlevelM: number of replicates with >50% inhibition in the male readout; for Selectivity Ratio M: HepG2 Tox50 versus male IC50; for IC50: PfDGFA, 24 h incubation with gametocytes before induction, exflagellation readout, read-out: Male IC50
Outline: as §1

HepG2 cells = assay: HepG2 cytotoxicity counter-screen; settings: cytotoxic activity against HepG2 cells
[3] = PfDGFA at 2µM, 24h preincubation with gametocytes, average of replicates
[4] = PfDGFA at 2µM, 24h preincubation with gametocytes, replicate R1
[5] = PfDGFA at 2µM, 24h preincubation with gametocytes, replicate R3
[6] = PfDGFA at 2µM, 24h preincubation with gametocytes, replicate R4
[7] = 2µM, 24h preincubation with gametocytes prior to induction of gametogenesis, average of replicates
[8] = 2µM, 24h preincubation with gametocytes prior to induction of gametogenesis, replicate R1
[9] = 2µM, 24h preincubation with gametocytes prior to induction of gametogenesis, replicate R3
[10] = 2µM, 24h preincubation with gametocytes prior to induction of gametogenesis, replicate R4
[11] = 2µM, 24h preincubation with gametocytes, average of replicates
[12] = 2µM, 24h preincubation with gametocytes, replicate R1
[13] = 2µM, 24h preincubation with gametocytes, replicate R3
[14] = 2µM, 24h preincubation with gametocytes, replicate R4

Row | Structure (SMILES) | IC50 ([1]; Plasmodium falciparum) | IC50 ([2]; Plasmodium falciparum) | IC50 [1] | IC50 [2] | Selectivity ratio F [1] | Selectivity Ratio M [2] | Tox50 (HepG2 cells) | Average inhibition female (%) [1, 3] | % inhibition female (individual replicates) R1 [1, 4] | % inhibition female (individual replicates) R3 [1, 5] | % inhibition female (individual replicates) R4 [1, 6] | HitlevelF ([1]; 2µM) | Average inhibition male (%) [2, 3] | % inhibition male (individual replicates) R1 [2, 4] | % inhibition male (individual replicates) R3 [2, 5] | % inhibition male (individual replicates) R4 [2, 6] | HitlevelM ([2]; 2µM) | other results
1 | COc1ccc2nc(-c3cc(-c4ccc(NC(C)=O)cc4)cnc3N)[nH]c2c1 [TCMDC-135365] | > 10000 nM | 540 nM | – | – | 0.31 | 5.74 | 3.08 µM | – | – | – | – | – | – | – | – | – | – | HitlevelF ([1]; 2µM, 24h preincubation): 0; inhibition at 2 µM ([1]; Plasmodium falciparum, 2µM, 24h preincubation with gametocytes prior to induction of gametogenesis, average of replicates, read-out: Average inhibition female (%)): -1.9%; inhibition at 2 µM ([1]; Plasmodium falciparum, 2µM, 24h preincubation with gametocytes prior to induction of gametogenesis, replicate R1, read-out: % inhibition female (individual replicates) R1): -7.6%; inhibition at 2 µM ([1]; Plasmodium falciparum, 2µM, 24h preincubation with gametocytes prior to induction of gametogenesis, replicate R2, read-out: % inhibition female (individual replicates) R2): 14.6%; inhibition at 2 µM ([1]; Plasmodium falciparum, 2µM, 24h preincubation with gametocytes prior to induction of gametogenesis, replicate R3, read-out: % inhibition female (individual replicates) R3): -10.3%; inhibition at 2 µM ([1]; Plasmodium falciparum, 2µM, 24h preincubation with gametocytes prior to induction of gametogenesis, replicate R4, read-out: % inhibition female (individual replicates) R4): -4.4%; HitlevelM ([2]; 2µM, 24h preincubation): 3; inhibition at 2 µM ([2]; Plasmodium falciparum, 2µM, 24h preincubation with gametocytes prior to induction of gametogenesis, average of replicates, read-out: Average inhibition male (%)): 61.3%; inhibition at 2 µM ([2]; Plasmodium falciparum, 2µM, 24h preincubation with gametocytes prior to induction of gametogenesis, replicate R1, read-out: % inhibition male (individual replicates) R1): 62.6%; inhibition at 2 µM ([2]; Plasmodium falciparum, 2µM, 24h preincubation with gametocytes prior to induction of gametogenesis, replicate R2, read-out: % inhibition male (individual replicates) R2): 72.6%; inhibition at 2 µM ([2]; Plasmodium falciparum, 2µM, 24h preincubation with gametocytes prior to induction of gametogenesis, replicate R3, read-out: % inhibition male (individual replicates) R3): 63.7%; inhibition at 2 µM ([2]; Plasmodium falciparum, 2µM, 24h preincubation with gametocytes prior to induction of gametogenesis, replicate R4, read-out: % inhibition male (individual replicates) R4): 46.2%
2 | CCS(=O)(=O)Nc1ccc2c(c1)/C(=C(/Nc1ccc(CN3CCCCC3)cc1)c1ccccc1)C(=O)N2 [TCMDC-135395] | > 10000 nM | 10 nM | – | – | 0.06 | 46.97 | 0.56 µM | – | – | – | – | – | – | – | – | – | – | inhibition at 2 µM ([1]; Plasmodium falciparum, 2µM, 24h preincubation with gametocytes, average of replicates, read-out: Average inhibition female (%)): -5.9%; inhibition at 2 µM ([1]; Plasmodium falciparum, 2µM, 24h preincubation with gametocytes, replicate R1, read-out: % inhibition female (individual replicates) R1): -6.3%; inhibition at 2 µM ([1]; Plasmodium falciparum, 2µM, 24h preincubation with gametocytes, replicate R2, read-out: % inhibition female (individual replicates) R2): -3.4%; inhibition at 2 µM ([1]; Plasmodium falciparum, 2µM, 24h preincubation with gametocytes, replicate R3, read-out: % inhibition female (individual replicates) R3): 1.2%; inhibition at 2 µM ([1]; Plasmodium falciparum, 2µM, 24h preincubation with gametocytes, replicate R4, read-out: % inhibition female (individual replicates) R4): -15.3%; inhibition at 2 µM ([2]; Plasmodium falciparum, 2µM, 24h preincubation with gametocytes, average of replicates, read-out: Average inhibition male (%)): 91.1%; inhibition at 2 µM ([2]; Plasmodium falciparum, 2µM, 24h preincubation with gametocytes, replicate R1, read-out: % inhibition male (individual replicates) R1): 87%; inhibition at 2 µM ([2]; Plasmodium falciparum, 2µM, 24h preincubation with gametocytes, replicate R2, read-out: % inhibition male (individual replicates) R2): 89.8%; inhibition at 2 µM ([2]; Plasmodium falciparum, 2µM, 24h preincubation with gametocytes, replicate R3, read-out: % inhibition male (individual replicates) R3): 92.4%; inhibition at 2 µM ([2]; Plasmodium falciparum, 2µM, 24h preincubation with gametocytes, replicate R4, read-out: % inhibition male (individual replicates) R4): 95.2%
3 | COc1cc(NC(=O)c2sc(-c3ccc(Cl)cc3)cc2NC(=O)c2ccncc2)ccc1OCCN1CCCC1 [TCMDC-135398] | – | – | 2460 nM | 1980 nM | 2.54 | 3.15 | 6.24 µM | 76.4% | 76.9% | 72.6% | 86.6% | 4 | 74.1% | 92.1% | 87.5% | 101.9% | 3 | –
4 | CCn1c(-c2nonc2N)nc2c(-c3ccccc3)ncc(OCCCNCCCN3CCOCC3)c21.O=C(O)C(F)(F)F [TCMDC-135858] | 6490 nM | 1370 nM | – | – | 2.48 | 11.73 | 16.12 µM | – | – | – | – | 0 | – | – | – | – | 3 | inhibition at 2 µM ([1]; Plasmodium falciparum, PfDGFA at 2µM, 24h preincubation with gametocytes, average of replicates, read-out: Average inhibition female (%)): 23%; inhibition at 2 µM ([1]; Plasmodium falciparum, PfDGFA at 2µM, 24h preincubation with gametocytes, replicate R1, read-out: % inhibition female (individual replicates) R1): 22.7%; inhibition at 2 µM ([1]; Plasmodium falciparum, PfDGFA at 2µM, 24h preincubation with gametocytes, replicate R2, read-out: % inhibition female (individual replicates) R2): 28.7%; inhibition at 2 µM ([1]; Plasmodium falciparum, PfDGFA at 2µM, 24h preincubation with gametocytes, replicate R3, read-out: % inhibition female (individual replicates) R3): 18.7%; inhibition at 2 µM ([1]; Plasmodium falciparum, PfDGFA at 2µM, 24h preincubation with gametocytes, replicate R4, read-out: % inhibition female (individual replicates) R4): 21.9%; inhibition at 2 µM ([2]; Plasmodium falciparum, PfDGFA at 2µM, 24h preincubation with gametocytes, average of replicates, read-out: Average inhibition male (%)): 85.1%; inhibition at 2 µM ([2]; Plasmodium falciparum, PfDGFA at 2µM, 24h preincubation with gametocytes, replicate R1, read-out: % inhibition male (individual replicates) R1): 80.4%; inhibition at 2 µM ([2]; Plasmodium falciparum, PfDGFA at 2µM, 24h preincubation with gametocytes, replicate R2, read-out: % inhibition male (individual replicates) R2): 88.6%; inhibition at 2 µM ([2]; Plasmodium falciparum, PfDGFA at 2µM, 24h preincubation with gametocytes, replicate R4, read-out: % inhibition male (individual replicates) R4): 86.5%
5 | CS(=O)(=O)O.FC(F)(F)COc1c(CCNCCCCNCCc2ccc3ccccc3c2OCC(F)(F)F)ccc2ccccc12 [TCMDC-137169] | – | – | 1260 nM | 810 nM | 2.09 | 3.23 | 2.63 µM | – | – | – | – | – | – | – | – | – | – | Average inhibition female (%) [1, 11]: 87.0%; % inhibition female (individual replicates) R1 [1, 12]: 87.1%; % inhibition female (individual replicates) R3 [1, 13]: 97.3%; % inhibition female (individual replicates) R4 [1, 14]: 102.2%; Average inhibition male (%) [2, 11]: 91.7%; % inhibition male (individual replicates) R1 [2, 12]: 101.1%; % inhibition male (individual replicates) R3 [2, 13]: 96.8%; % inhibition male (individual replicates) R4 [2, 14]: 99.1%

Second part, led by results:

Row | IC50 ([1]; Plasmodium falciparum) | IC50 ([2]; Plasmodium falciparum) | IC50 [1] | IC50 [2] | Structure (SMILES) | Selectivity ratio F [1] | Selectivity Ratio M [2] | Tox50 (HepG2 cells) | Average inhibition female (%) [1, 3] | % inhibition female (individual replicates) R1 [1, 4] | % inhibition female (individual replicates) R3 [1, 5] | % inhibition female (individual replicates) R4 [1, 6] | HitlevelF ([1]; 2µM) | Average inhibition male (%) [2, 3] | % inhibition male (individual replicates) R1 [2, 4] | % inhibition male (individual replicates) R3 [2, 5] | % inhibition male (individual replicates) R4 [2, 6] | HitlevelM ([2]; 2µM) | other results
6 | – | – | – | 390 nM | O=C(Nc1cccc(-c2nn3ncccc3c2-c2ccnc(Nc3cccc(-c4cnco4)c3)n2)c1)c1c(F)cccc1F [TCMDC-135550] | 0.18 | 4.7 | 1.85 µM | – | – | – | – | – | – | – | – | – | – | Average inhibition female (%) [1, 7]: -4.1%; % inhibition female (individual replicates) R1 [1, 8]: -3.8%; % inhibition female (individual replicates) R3 [1, 9]: -14.6%; % inhibition female (individual replicates) R4 [1, 10]: 0.16%; HitlevelF ([1]; 2µM, 24h preincubation): 0; Average inhibition male (%) [2, 7]: 55.8%; % inhibition male (individual replicates) R1 [2, 8]: 81.6%; % inhibition male (individual replicates) R3 [2, 9]: 54.6%; % inhibition male (individual replicates) R4 [2, 10]: 6.2%; HitlevelM ([2]; 2µM, 24h preincubation): 3
7 | – | – | – | 270 nM | COc1cc(Nc2nccc(-c3c(-c4cccc(NC(=O)c5c(F)cccc5F)c4)nn4ncccc34)n2)cc(OC)c1OC [TCMDC-135684] | 0.12 | 4.28 | 1.17 µM | – | – | – | – | – | – | – | – | – | – | Average inhibition female (%) [1, 11]: 9.6%; % inhibition female (individual replicates) R1 [1, 12]: 8.4%; % inhibition female (individual replicates) R3 [1, 13]: 15.7%; % inhibition female (individual replicates) R4 [1, 14]: 19.8%; Average inhibition male (%) [2, 11]: 97.0%; % inhibition male (individual replicates) R1 [2, 12]: 96.5%; % inhibition male (individual replicates) R3 [2, 13]: 98.0%; % inhibition male (individual replicates) R4 [2, 14]: 98.2%
8 | – | – | 4730 nM | 1300 nM | CCN(CC)CCOc1ccc(C(O)(C#CC(O)(c2ccc(C)cc2)c2ccc(OCCN(CC)CC)cc2)c2ccc(C)cc2)cc1 (stereo not drawn) [TCMDC-137198] | 0.55 | 2.02 | 2.63 µM | 31.2% | 31.1% | 8.3% | 48.8% | 0 | 80.0% | 79.9% | 84.8% | 81.8% | 4 | –
9 | – | – | 1270 nM | 610 nM | CCN(CC)CCOc1ccc(C(O)(C#CC(O)(c2ccc(Br)cc2)c2ccc(OCCN(CC)CC)cc2)c2ccc(Br)cc2)cc1 (stereo not drawn) [TCMDC-137199] | 1.56 | 3.23 | 1.99 µM | 19.7% | 20.5% | 18.5% | 25.4% | 0 | 78.4% | 76.2% | 84.3% | 81.8% | 4 | –
